# Source: patent publication US10231954B2, “Neurodegenerative therapies” (LYTIX BIOPHARMA AS, priority 2014, dated 2019)
# Legend:
# [1] = target: IGF-1R (Homo sapiens, UniProt P08069); experiment: Kinase profiling IGF-1R; assay type: biochemical; conditions: 100 micromolar inhibitor concentration, 100 is no change
# Source text: (§1) Any value less that 25 is considered to be highly significant inhibition.
# [2] = target: PLK1 (Homo sapiens, UniProt P53350); experiment: Kinase profiling PLK1; assay type: biochemical; conditions: 100 micromolar inhibitor concentration, 100 is no change
# Source text: as §1
# [3] = target: JNK1 (Homo sapiens, UniProt P45983); experiment: Kinase profiling JNK1; assay type: biochemical; conditions: 100 micromolar inhibitor concentration, 100 is no change
# Source text: as §1
# [4] = target: HER4 (Homo sapiens, UniProt Q15303); experiment: Kinase profiling HER4; assay type: biochemical; conditions: 100 micromolar inhibitor concentration, 100 is no change
# Source text: as §1
# [5] = target: T1, MKK6 (Homo sapiens, UniProt P52564); experiment: Kinase profiling MKK6; assay type: biochemical; conditions: 100 micromolar inhibitor concentration, 100 is no change
# T1 sequence (P52564 1-334): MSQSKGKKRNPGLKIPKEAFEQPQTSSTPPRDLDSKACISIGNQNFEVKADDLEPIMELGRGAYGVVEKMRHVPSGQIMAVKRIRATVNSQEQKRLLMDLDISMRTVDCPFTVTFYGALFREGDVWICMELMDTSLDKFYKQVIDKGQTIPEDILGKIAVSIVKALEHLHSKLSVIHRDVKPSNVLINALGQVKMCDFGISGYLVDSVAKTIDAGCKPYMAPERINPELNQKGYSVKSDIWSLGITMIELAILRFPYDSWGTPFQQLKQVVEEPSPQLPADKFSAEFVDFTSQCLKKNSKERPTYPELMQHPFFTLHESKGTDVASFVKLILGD
# Source text: as §1
# [6] = target: ROCK 2 (Homo sapiens, UniProt O75116); experiment: Kinase profiling ROCK 2; assay type: biochemical; conditions: 100 micromolar inhibitor concentration, 100 is no change
# Source text: as §1
# [7] = tested on: AMPK (hum); experiment: Kinase profiling AMPK (hum); assay type: biochemical, human; conditions: 100 micromolar inhibitor concentration; 100 is no change
# Source text: as §1
# [8] = target: PIM1 (Homo sapiens, UniProt P11309); experiment: Kinase profiling PIM1; assay type: biochemical; conditions: 100 micromolar inhibitor concentration, 100 is no change
# Source text: as §1
# [9] = target: p38b MAPK (Homo sapiens, UniProt Q15759); experiment: Kinase profiling p38b MAPK; assay type: biochemical; conditions: 100 micromolar inhibitor concentration, 100 is no change
# Source text: as §1
# [10] = target: PRK2 (Homo sapiens, UniProt Q16513); experiment: Kinase profiling PRK2; assay type: biochemical; conditions: 100 micromolar inhibitor concentration, 100 is no change
# Source text: as §1
# [11] = target: MELK (Homo sapiens, UniProt Q14680); experiment: Kinase profiling MELK; assay type: biochemical; conditions: 100 micromolar inhibitor concentration, 100 is no change
# Source text: as §1
# [12] = target: PKBa (Homo sapiens, UniProt P31749); experiment: Kinase profiling PKBa; assay type: biochemical; conditions: for residual kinase activity, PKBa: 100 micromolar inhibitor concentration, 100 is no change
# Source text: as §1
# [13] = target: PKA (Homo sapiens, UniProt P17612); experiment: Kinase profiling PKA; assay type: biochemical; conditions: 100 micromolar inhibitor concentration, 100 is no change
# Source text: as §1
# [14] = target: CAMKKb (Homo sapiens, UniProt Q96RR4); experiment: Kinase profiling CAMKKb; assay type: biochemical; conditions: 100 micromolar inhibitor concentration, 100 is no change
# Source text: as §1
# [15] = target: EPH-A2 (Homo sapiens, UniProt P29317); experiment: Kinase profiling EPH-A2; assay type: biochemical; conditions: 100 micromolar inhibitor concentration, 100 is no change
# Source text: as §1
# [16] = target: MKK2 (Homo sapiens, UniProt P36507); experiment: Kinase profiling MKK2; assay type: biochemical; conditions: 100 micromolar inhibitor concentration, 100 is no change
# Source text: as §1
# [17] = target: RSK1 (Homo sapiens, UniProt Q15418); experiment: Kinase profiling RSK1; assay type: biochemical; conditions: 100 micromolar inhibitor concentration, 100 is no change
# Source text: as §1
# [18] = target: T2, PDK1 (Homo sapiens, UniProt O15530); experiment: Kinase profiling PDK1; assay type: biochemical; conditions: 100 micromolar inhibitor concentration, 100 is no change
# T2 sequence (O15530 1-556): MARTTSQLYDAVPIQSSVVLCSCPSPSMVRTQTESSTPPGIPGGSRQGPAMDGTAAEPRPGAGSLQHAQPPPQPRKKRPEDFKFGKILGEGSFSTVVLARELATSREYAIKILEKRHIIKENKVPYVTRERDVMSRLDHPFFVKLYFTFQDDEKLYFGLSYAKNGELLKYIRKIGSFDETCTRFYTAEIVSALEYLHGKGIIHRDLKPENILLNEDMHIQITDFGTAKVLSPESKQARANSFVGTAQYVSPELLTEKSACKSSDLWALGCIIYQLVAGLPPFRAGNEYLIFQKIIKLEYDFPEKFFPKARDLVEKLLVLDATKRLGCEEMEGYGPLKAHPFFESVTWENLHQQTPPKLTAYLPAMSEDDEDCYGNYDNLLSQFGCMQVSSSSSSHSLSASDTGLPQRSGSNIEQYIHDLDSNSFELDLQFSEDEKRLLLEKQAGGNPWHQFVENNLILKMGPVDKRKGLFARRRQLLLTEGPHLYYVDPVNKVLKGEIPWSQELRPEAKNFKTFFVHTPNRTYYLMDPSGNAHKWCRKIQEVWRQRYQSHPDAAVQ
# Source text: as §1
# [19] = target: RIPK2 (Homo sapiens, UniProt O43353); experiment: Kinase profiling RIPK2; assay type: biochemical; conditions: 100 micromolar inhibitor concentration, 100 is no change
# Source text: as §1
# [20] = target: PKCa (Homo sapiens, UniProt P17252); experiment: Kinase profiling PKCa; assay type: biochemical; conditions: 100 micromolar inhibitor concentration, 100 is no change
# Source text: as §1
# [21] = target: BTK (Homo sapiens, UniProt Q06187); experiment: Kinase profiling BTK; assay type: biochemical; conditions: 100 micromolar inhibitor concentration, 100 is no change
# Source text: as §1
# [22] = target: S6K1 (Homo sapiens, UniProt P23443); experiment: Kinase profiling S6K1; assay type: biochemical; conditions: 100 micromolar inhibitor concentration, 100 is no change
# Source text: as §1
# ROCK 2, sequence (O75116 whole entry, species assumed): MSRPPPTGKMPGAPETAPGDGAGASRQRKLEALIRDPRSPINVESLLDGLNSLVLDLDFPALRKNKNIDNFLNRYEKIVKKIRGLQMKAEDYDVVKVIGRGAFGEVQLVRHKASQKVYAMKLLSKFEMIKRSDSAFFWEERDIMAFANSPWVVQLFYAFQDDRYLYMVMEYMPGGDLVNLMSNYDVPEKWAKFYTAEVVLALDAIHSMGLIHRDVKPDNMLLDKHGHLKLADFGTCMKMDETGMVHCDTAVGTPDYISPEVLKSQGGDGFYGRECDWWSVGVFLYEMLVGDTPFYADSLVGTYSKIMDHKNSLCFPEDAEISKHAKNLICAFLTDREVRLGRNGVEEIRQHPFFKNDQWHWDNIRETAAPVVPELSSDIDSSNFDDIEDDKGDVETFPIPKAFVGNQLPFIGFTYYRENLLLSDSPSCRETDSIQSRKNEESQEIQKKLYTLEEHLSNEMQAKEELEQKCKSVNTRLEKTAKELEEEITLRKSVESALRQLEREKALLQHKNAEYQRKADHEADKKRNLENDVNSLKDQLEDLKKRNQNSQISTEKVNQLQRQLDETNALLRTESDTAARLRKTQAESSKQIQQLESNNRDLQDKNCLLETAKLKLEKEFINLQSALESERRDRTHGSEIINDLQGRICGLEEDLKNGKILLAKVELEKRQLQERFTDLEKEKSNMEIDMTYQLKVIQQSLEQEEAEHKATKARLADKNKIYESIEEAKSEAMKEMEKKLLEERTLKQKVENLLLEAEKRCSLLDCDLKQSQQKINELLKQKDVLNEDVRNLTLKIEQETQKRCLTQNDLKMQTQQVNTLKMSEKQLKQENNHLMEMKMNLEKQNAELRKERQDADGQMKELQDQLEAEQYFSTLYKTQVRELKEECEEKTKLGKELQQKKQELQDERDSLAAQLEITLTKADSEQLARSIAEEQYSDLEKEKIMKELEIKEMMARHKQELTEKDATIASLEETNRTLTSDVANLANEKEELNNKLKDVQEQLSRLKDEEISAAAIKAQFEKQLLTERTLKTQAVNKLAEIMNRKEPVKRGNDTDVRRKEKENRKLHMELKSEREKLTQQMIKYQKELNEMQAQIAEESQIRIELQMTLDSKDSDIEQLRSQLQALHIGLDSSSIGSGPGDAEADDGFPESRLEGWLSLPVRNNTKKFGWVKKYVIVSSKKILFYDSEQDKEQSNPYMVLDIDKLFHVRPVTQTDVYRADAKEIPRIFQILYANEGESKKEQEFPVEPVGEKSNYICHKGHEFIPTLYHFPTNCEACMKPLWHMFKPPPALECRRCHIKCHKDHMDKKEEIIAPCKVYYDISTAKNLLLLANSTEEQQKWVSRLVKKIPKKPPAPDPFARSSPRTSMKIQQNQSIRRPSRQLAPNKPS
# HER4, sequence (Q15303 26-1308, species assumed): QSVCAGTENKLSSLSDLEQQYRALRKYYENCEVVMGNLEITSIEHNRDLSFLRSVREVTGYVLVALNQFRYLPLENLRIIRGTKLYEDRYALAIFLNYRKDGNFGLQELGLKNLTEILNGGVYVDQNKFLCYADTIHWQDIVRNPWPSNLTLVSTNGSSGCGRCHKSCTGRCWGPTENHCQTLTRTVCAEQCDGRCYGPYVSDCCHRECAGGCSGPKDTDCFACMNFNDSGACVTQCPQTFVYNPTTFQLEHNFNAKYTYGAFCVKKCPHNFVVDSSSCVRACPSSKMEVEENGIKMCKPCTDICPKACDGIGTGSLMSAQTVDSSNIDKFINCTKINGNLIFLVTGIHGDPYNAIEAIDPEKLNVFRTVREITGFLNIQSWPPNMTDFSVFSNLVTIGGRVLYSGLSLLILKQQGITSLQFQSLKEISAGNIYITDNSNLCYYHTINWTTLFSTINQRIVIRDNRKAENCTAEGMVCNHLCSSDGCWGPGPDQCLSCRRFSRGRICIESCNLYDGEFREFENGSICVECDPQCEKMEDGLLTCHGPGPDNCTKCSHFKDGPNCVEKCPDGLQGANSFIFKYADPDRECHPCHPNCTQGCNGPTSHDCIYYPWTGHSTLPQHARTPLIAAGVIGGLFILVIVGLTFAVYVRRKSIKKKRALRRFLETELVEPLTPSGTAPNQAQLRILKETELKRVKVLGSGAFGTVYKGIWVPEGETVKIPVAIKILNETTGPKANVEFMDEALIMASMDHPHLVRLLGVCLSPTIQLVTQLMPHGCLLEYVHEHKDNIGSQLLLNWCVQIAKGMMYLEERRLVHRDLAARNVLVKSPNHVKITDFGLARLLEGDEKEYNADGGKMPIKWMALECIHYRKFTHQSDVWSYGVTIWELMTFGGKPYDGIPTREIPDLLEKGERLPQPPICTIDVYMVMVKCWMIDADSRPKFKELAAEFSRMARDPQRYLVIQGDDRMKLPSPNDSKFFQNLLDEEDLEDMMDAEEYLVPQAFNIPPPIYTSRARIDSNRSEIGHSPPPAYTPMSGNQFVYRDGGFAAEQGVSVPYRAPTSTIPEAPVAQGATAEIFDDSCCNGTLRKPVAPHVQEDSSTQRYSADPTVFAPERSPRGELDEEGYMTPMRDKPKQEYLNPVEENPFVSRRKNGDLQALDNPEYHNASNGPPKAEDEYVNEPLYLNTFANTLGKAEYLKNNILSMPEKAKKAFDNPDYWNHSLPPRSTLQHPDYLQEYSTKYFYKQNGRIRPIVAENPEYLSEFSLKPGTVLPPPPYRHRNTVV
# PIM1, sequence (P11309 whole entry, species assumed): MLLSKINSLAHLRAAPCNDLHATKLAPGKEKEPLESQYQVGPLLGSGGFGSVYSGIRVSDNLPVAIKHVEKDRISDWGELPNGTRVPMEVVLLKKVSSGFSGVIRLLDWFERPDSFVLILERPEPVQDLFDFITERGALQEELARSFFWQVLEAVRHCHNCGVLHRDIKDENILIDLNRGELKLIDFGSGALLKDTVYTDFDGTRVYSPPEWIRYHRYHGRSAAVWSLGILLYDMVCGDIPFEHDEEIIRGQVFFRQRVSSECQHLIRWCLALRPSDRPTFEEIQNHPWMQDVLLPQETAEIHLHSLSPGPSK
# RSK1, sequence (Q15418 whole entry, species assumed): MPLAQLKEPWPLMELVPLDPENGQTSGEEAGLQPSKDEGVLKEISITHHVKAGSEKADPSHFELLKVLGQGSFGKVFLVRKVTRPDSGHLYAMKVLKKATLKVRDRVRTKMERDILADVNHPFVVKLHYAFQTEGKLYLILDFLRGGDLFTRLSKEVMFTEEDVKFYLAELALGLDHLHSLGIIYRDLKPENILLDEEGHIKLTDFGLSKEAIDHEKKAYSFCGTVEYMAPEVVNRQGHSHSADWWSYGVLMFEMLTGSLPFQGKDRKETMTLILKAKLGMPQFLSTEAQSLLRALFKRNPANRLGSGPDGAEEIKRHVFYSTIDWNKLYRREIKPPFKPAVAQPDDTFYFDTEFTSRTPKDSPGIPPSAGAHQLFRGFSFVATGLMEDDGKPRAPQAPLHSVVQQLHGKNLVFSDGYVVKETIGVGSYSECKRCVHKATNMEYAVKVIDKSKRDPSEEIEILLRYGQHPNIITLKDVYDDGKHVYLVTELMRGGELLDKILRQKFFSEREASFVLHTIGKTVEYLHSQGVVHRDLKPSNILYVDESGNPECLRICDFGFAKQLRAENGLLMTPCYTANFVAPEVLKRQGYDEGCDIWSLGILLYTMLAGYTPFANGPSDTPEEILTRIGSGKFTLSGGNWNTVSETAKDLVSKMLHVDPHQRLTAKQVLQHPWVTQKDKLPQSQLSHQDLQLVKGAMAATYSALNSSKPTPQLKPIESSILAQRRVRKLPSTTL
# PLK1, sequence (P53350 whole entry, species assumed): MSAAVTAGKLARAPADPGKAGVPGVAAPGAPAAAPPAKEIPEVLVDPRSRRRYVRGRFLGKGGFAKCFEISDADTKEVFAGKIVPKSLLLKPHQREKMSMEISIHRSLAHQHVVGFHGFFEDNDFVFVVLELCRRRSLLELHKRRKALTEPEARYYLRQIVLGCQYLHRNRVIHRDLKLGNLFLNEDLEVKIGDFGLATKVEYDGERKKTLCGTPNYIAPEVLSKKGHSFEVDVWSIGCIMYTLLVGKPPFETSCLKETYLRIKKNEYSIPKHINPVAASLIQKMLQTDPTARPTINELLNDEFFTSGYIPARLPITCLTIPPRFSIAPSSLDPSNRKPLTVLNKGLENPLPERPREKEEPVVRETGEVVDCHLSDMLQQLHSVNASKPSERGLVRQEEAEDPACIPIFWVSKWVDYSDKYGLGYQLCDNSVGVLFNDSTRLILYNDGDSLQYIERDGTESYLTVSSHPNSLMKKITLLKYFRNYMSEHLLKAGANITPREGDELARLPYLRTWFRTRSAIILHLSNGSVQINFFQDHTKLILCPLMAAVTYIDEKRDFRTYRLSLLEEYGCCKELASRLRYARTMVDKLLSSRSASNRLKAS
smiles,measurement,setting,value
COc1ccc2sc(NC(C)=O)nc2c1 [Compound 03-21],remaining activity at 100 µM,"[1]; read-out: residual kinase activity, IGF-1R",78%
same,remaining activity at 100 µM,"[2]; read-out: residual kinase activity, PLK1",90%
same,remaining activity at 100 µM,"[3]; read-out: residual kinase activity, JNK1",97%
same,remaining activity at 100 µM,"[4]; read-out: residual kinase activity, HER4",94%
same,remaining activity at 100 µM,"[5]; read-out: residual kinase activity, MKK6",117%
same,remaining activity at 100 µM,"[6]; read-out: residual kinase activity, ROCK 2",52%
same,"residual kinase activity, AMPK (hum)",[7],81
same,remaining activity at 100 µM,"[8]; read-out: residual kinase activity, PIM1",8%
same,remaining activity at 100 µM,"[9]; read-out: residual kinase activity, p38b MAPK",101%
same,remaining activity at 100 µM,"[10]; read-out: residual kinase activity, PRK2",67%
same,remaining activity at 100 µM,"[11]; read-out: residual kinase activity, MELK",44%
same,remaining activity at 100 µM,"[12]; read-out: residual kinase activity, PKBa",91%
same,remaining activity at 100 µM,"[13]; read-out: residual kinase activity, PKA",11%
same,remaining activity at 100 µM,"[14]; read-out: residual kinase activity, CAMKKb",87%
same,remaining activity at 100 µM,"[15]; read-out: residual kinase activity, EPH-A2",89%
same,remaining activity at 100 µM,"[16]; read-out: residual kinase activity, MKK2",90%
same,remaining activity at 100 µM,"[17]; read-out: residual kinase activity, RSK1",93%
same,remaining activity at 100 µM,"[18]; read-out: residual kinase activity, PDK1",115%
same,remaining activity at 100 µM,"[19]; read-out: residual kinase activity, RIPK2",29%
same,remaining activity at 100 µM,"[20]; read-out: residual kinase activity, PKCa",101%
same,remaining activity at 100 µM,"[21]; read-out: residual kinase activity, BTK",102%
same,remaining activity at 100 µM,"[22]; read-out: residual kinase activity, S6K1",63%
CC(=O)Nc1nc2ccccc2s1 [Compound 03-32],"residual kinase activity, IGF-1R",[1],74
same,"residual kinase activity, PLK1",[2],62
same,"residual kinase activity, JNK1",[3],97
same,"residual kinase activity, HER4",[4],78
same,"residual kinase activity, MKK6",[5],85
same,"residual kinase activity, ROCK 2",[6],91
same,"residual kinase activity, AMPK (hum)",[7],86
same,"residual kinase activity, PIM1",[8],79
same,"residual kinase activity, p38b MAPK",[9],107
same,"residual kinase activity, PRK2",[10],81
same,"residual kinase activity, MELK",[11],83
same,"residual kinase activity, PKBa",[12],104
same,"residual kinase activity, PKA",[13],91
same,"residual kinase activity, CAMKKb",[14],101
same,"residual kinase activity, EPH-A2",[15],111
same,"residual kinase activity, MKK2",[16],96
same,"residual kinase activity, RSK1",[17],86
same,"residual kinase activity, PDK1",[18],96
same,"residual kinase activity, RIPK2",[19],70
same,"residual kinase activity, PKCa",[20],104
same,"residual kinase activity, BTK",[21],100
same,"residual kinase activity, S6K1",[22],92
O=C(Nc1nc2cc(O)ccc2s1)c1cccnc1 [Compound 03-33],"residual kinase activity, IGF-1R",[1],50
same,"residual kinase activity, PLK1",[2],80
same,"residual kinase activity, JNK1",[3],111
same,"residual kinase activity, HER4",[4],48
same,"residual kinase activity, MKK6",[5],122
same,"residual kinase activity, ROCK 2",[6],53
same,"residual kinase activity, AMPK (hum)",[7],87
same,"residual kinase activity, PIM1",[8],25
same,"residual kinase activity, p38b MAPK",[9],87
same,"residual kinase activity, PRK2",[10],85
same,"residual kinase activity, MELK",[11],29
same,"residual kinase activity, PKBa",[12],100
same,"residual kinase activity, PKA",[13],102
same,"residual kinase activity, CAMKKb",[14],69
same,"residual kinase activity, EPH-A2",[15],108
same,"residual kinase activity, MKK2",[16],85
same,"residual kinase activity, RSK1",[17],73
same,"residual kinase activity, PDK1",[18],100
same,"residual kinase activity, RIPK2",[19],20
same,"residual kinase activity, PKCa",[20],105
same,"residual kinase activity, BTK",[21],110
same,"residual kinase activity, S6K1",[22],75
O=C(Nc1nc2ccc(O)cc2s1)c1ccccc1 [Compound 03-60],"residual kinase activity, IGF-1R",[1],18
same,"residual kinase activity, PLK1",[2],74
same,"residual kinase activity, JNK1",[3],88
same,"residual kinase activity, HER4",[4],16
same,"residual kinase activity, MKK6",[5],109
same,"residual kinase activity, ROCK 2",[6],11
same,"residual kinase activity, AMPK (hum)",[7],27
same,"residual kinase activity, PIM1",[8],35
same,"residual kinase activity, p38b MAPK",[9],76
same,"residual kinase activity, PRK2",[10],27
same,"residual kinase activity, MELK",[11],18
same,"residual kinase activity, PKBa",[12],79
same,"residual kinase activity, PKA",[13],97
same,"residual kinase activity, CAMKKb",[14],37
same,"residual kinase activity, EPH-A2",[15],77
same,"residual kinase activity, MKK2",[16],90
same,"residual kinase activity, RSK1",[17],28
same,"residual kinase activity, PDK1",[18],98
same,"residual kinase activity, RIPK2",[19],12
same,"residual kinase activity, PKCa",[20],97
same,"residual kinase activity, BTK",[21],59
same,"residual kinase activity, S6K1",[22],11
